Measured values published in patent US20230081034A1 (SHANGHAI BENEMAE PHARMACEUTICAL CORPORATION, priority 2020, published 2023).
“Also recorded” adds a separate entry of the source.

Columns and labels:
[1] = system: patients with type 2 diabetes; assay: Randomized, double-blind, placebo-controlled clinical trial: subcutaneous beinaglutide before meals in combination with oral metformin, 12-week treatment; assay type: in vivo, human
Procedure: The inclusion criteria (if any) are as follows: Type 2 diabetic patients that met the World Health Organization's diagnostic criteria for type 2 diabetes (WHO, 1999) who received oral metformin treatment at dosages 1,000 mg/d that had stabilized for at least 3 months without treatment-related adverse events (e.g., vomiting) and voluntarily signed informed consent and with the following criteria:
In a randomized, double-blind, placebo-controlled clinical trial, 42 patients with type 2 diabetes treated with metformin monotherapy were randomly divided into a treatment group and a control group, with 21 cases in each group. All patients received metformin (Glucophage, purchased from Bristol-Myers Squibb) with original dosages. 200 μg of beinaglutide (from Benemae, treatment group) or a placebo (Benemae, control group) were administered to patients by one-time subcutaneous injection before each of three meals (600 μg/d) and followed up after a 12-week treatment.
Glycated hemoglobin (HbA1c), fasting blood glucose, 2 h postprandial blood glucose, BMI, and other effectiveness indicators were measured.

[2] = system: obese and overweight patients with type 2 diabetes; assay: Beinaglutide dosing regimen (continuous subcutaneous pump plus pre-meal doses), alone or with metformin / insulin glargine, one month; assay type: in vivo, human
Procedure: The beinaglutide dosing regimen included 1) a continuous subcutaneous administration of beinaglutide at 12.5 μg/h (300 μg/d) via a subcutaneous pump, 2) a one-time subcutaneous administration of beinaglutide at a dose of 100 μg 5 min before each of the three meals a day, and 3) optional administration of insulin glargine and/or metformin.
The patients treated were overweight/obesity in short disease course of type 2 diabetes. Two patients were female, and four patients were male. The patients were 30 to 55 years old with a course of disease between 0 and 5 years with glycated hemoglobin between 9% and 12%, and BMI between 26 and 30 kg/m^2.
Three patients were treated with beinaglutide monotherapy. Three patients were treated with a combinational therapy of beinaglutide and one or two third active ingredients (metformin, or metformin and glargine). Glycated hemoglobin (HbA1c) and weight were measured.
The patients were treated with the beinaglutide dosing regimen described herein, either alone or in combination with one or more third active ingredients. Some patients were treated with insulin (daily dosage of 0.5 u/kg) pump treatment alone or in combination with metformin (0.5 g tid) for a week right before starting the beinaglutide treatment.

[3] = treatment group, after 12 weeks beinaglutide 600 μg/d s.c. + metformin
[4] = Patient 2: insulin (0.5 u/kg) 1 week, then beinaglutide regimen + metformin (0.5 g tid) 1 month

With “His-Ala-Glu-Gly-Thr-Phe-Thr-Ser-Asp-Val-Ser-Ser-Tyr-Leu-Glu-Gly-Gln-Ala-Ala-Lys-Glu-Phe-Ile-Ala-Trp-Leu-Val-Lys-Gly-Arg [beinaglutide]” the “BMI, treatment group versus control group” value ([1]; 12 weeks, P>0.05) was “no statistic differences between the two groups”, the “Postprandial blood glucose decreased by” value ([1]; 2 h postprandial, treatment group, beinaglutide 600 μg/d s.c. + metformin, 12 weeks, P<0.01) was 4.18 mmol/L and the “HbA1c decreased by” value ([1]; treatment group (21 cases), metformin at original dosage + beinaglutide 200 μg s.c. before each of three meals (600 μg/d), 12 weeks, P<0.01) was 1.17%. For the same substance, the “HbA1c and fasting blood glucose post-treatment versus control group” value ([1]; treatment group vs placebo + metformin, 12 weeks, P<0.05) was “even more significant decrease comparing with control group”, the “HbA1c and fasting blood glucose post-treatment versus pre-treatment” value ([1]; treatment group, 12 weeks beinaglutide 600 μg/d + metformin) was “significant decrease comparing with the pre-treatment indicators” and the “BMI change after treatment” value ([1]; treatment group, 12 weeks, P<0.05 (control group also decreased)) was “significant decrease in BMI”. For the same substance, the HbA1c post-treatment ([1]; treatment group, after 12 weeks beinaglutide 200 μg s.c. before each of three meals + metformin) was 6.8%, the “Fasting blood glucose post-treatment” value [1, 3] was 7.45 mmol/L and the “Postprandial blood glucose post-treatment” value [1, 3] was 11.02 mmol/L. For the same substance, the “Fasting blood glucose pre-treatment” value ([1]; treatment group, baseline) was 9.43 mmol/L, the “Postprandial blood glucose pre-treatment” value ([1]; treatment group, baseline) was 15.2 mmol/L and the HbA1c pre-treatment ([1]; treatment group, baseline before beinaglutide 600 μg/d + metformin) was 7.97%. For the same substance, the “Fasting blood glucose decreased by” value ([1]; treatment group, beinaglutide 600 μg/d s.c. + metformin, 12 weeks) was 1.98 mmol/L, the Body weight pre-treatment ([2]; Patient 1, baseline) was 61 kg and the HbA1c pre-treatment ([2]; Patient 1, baseline) was 9.4%. It also gave a Body weight post-treatment ([2]; Patient 1: insulin (0.5 u/kg) + metformin (0.5 g tid) 1 week, then beinaglutide monotherapy (12.5 μg/h continuous s.c. + 100 μg before each of three meals) 1 month) of 57.5 kg, a Body weight pre-treatment ([2]; Patient 2, baseline) of 99 kg and a HbA1c pre-treatment ([2]; Patient 2, baseline) of 8.8%. The Body weight post-treatment [2, 4] was 93 kg, the HbA1c post-treatment [2, 4] was 6.3% and the Body weight pre-treatment ([2]; Patient 3, baseline) was 88 kg. For the same substance, the HbA1c pre-treatment ([2]; Patient 3, baseline) was 12.3%, the Body weight post-treatment ([2]; Patient 3: insulin (0.5 u/kg) 1 week, then beinaglutide regimen + metformin (0.5 g tid) 1 month) was 83 kg and the Body weight pre-treatment ([2]; Patient 4, baseline) was 80 kg. For the same substance, the HbA1c pre-treatment ([2]; Patient 4, baseline) was 9.3%, the Body weight post-treatment ([2]; Patient 4: insulin (0.5 u/kg) 1 week, then beinaglutide regimen + metformin (0.5 g tid) + insulin glargine (16 u s.c. before bed) 1 month) was 73 kg and the Body weight pre-treatment ([2]; Patient 5, baseline) was 80 kg. The HbA1c pre-treatment ([2]; Patient 5, baseline) was 7.3%, the Body weight post-treatment ([2]; Patient 5: beinaglutide monotherapy (12.5 μg/h continuous s.c. + 100 μg before each of three meals) 1 month) was 77 kg and the Body weight pre-treatment ([2]; Patient 6, baseline) was 85 kg. The HbA1c pre-treatment ([2]; Patient 6, baseline) was 9.7%, the Body weight post-treatment ([2]; Patient 6: insulin (0.5 u/kg) 1 week, then beinaglutide monotherapy (0.6 mg/d) 1 month) was 78 kg and the “Overall outcome on body weight and HbA1c” value ([2]; six patients, continuous 300 μg/d + 100 μg tid before meal, alone or with metformin or metformin and insulin glargine, one month) was “significant weight loss and/or HbA1c decrease; also recorded: achieved decrease in HbA1c and/or body weight”.
